Laboratory results: US10316008B2, “KCNQ potassium channel agonist, and preparation method therefor and use thereof” (SHANGHAI INSTITUTE OF MATERIA MEDICA, CHINESE ACADEMY OF …, priority 2014, dated 2019)
Counter-ions that a name gives are not always drawn.

Tests used:
KCNQ potassium channel = assay: Whole-cell voltage-clamp recording in CHO-K1 cells transfected with KCNQ plasmid; type: cell-based; settings: for I/I0: current enhancement factor, −10 mV testing voltage, compound concentration 10 μM, >1 activating, <1 inhibiting; for ΔV1/2: shift of V1/2, negative sign = left-ward shift of current activation curve, compound 10 μM, CHO-K1 cells
Method: The culture medium for Chinese hamster oocytes (CHO-K1) (Culture Collection of Chinese Academy of Sciences): 50/50 DMEM/F-12 (Cellgro, Manassas, Va.), added with 10% fetal bovine serum (FBS) (Gibco, Australia) and 2 mM L-glutamic acid (Invitrogen). […] Lipofectamine 2000™ agent (Invitrogen) was used for Transfection according to the protocol thereof. GFP (green fluorescent protein) was cotransfected to be used as a indication of successful converting into KCNQ plasmid.
Whole-cell voltage-clamp recording was performed on an Axopatch-200B amplifier (Molecular Devices, Sunnyvale, Calif.) at room temperature. The electrode was made by drawing borosilicate glass capillary (World Precision Instruments, Sarasota, Fla.). The electric resistance of the electrode filled with an intracellular fluid is 3 to 5 MΩ. […] During the recording, an extracellular fluid was continuously perfused by using a BPS perfusion system (ALA Scientific Instruments, Westburg, N.Y.). The composition of the extracellular fluid (1 L) was as follows: 140 mM NaCl(Sigma), 5 mM KCl(Sigma), 2 mM CaCl2(Sigma), 1.5 mM MgCl2(Sigma), 10 mM HEPES(Sigma) and 10 mM glucose(Sigma) (pH was adjusted to 7.4 with NaOH). […] Series resistors compensate 60 to 80%. Up to date, multivoltage scheme was generally adopted, wherein the clamp voltage was set at −80 mV, stimulating voltage was a gradient voltage from −90 mV to 60 mV with interval of 10 mV, and the stimulating time for each voltage was 2000 ms.
V1/2 is the voltage at which 50% of cells were activated, ΔV1/2 is the shift amount of V1/2, negative sign (−) represents a left-ward shift of the current activation curve. I/I0 represents the current enhancement factor, wherein, I0 is the maximum induced current produced under stimulation of −10 mV testing voltage after administrating cells with blank extracellular fluid, I is the maximum induced current produced under stimulation of −10 mV testing voltage after administrating the drug (the compound concentration was 10 μM), I/I0>1 represents activating activity, and I/I0<1 represents inhibiting activity. N is the number of tested cells. NT represents non-tested.

[1] = data from FDA Pharmacology Review(s), Potiga tablets; cited from earlier work
[2] = biological target: T1, KCNQ2 homotetramer channel (Homo sapiens, UniProt O43526); assay: KCNQ2 channel dose-response curve in CHO-K1 cells transfected with KCNQ2 plasmid; type: cell-based
T1 construct: expressed in transfected cells; host or cells: CHO-K1
Method: The culture medium for Chinese hamster oocytes (CHO-K1) (Culture Collection of Chinese Academy of Sciences): 50/50 DMEM/F-12 (Cellgro, Manassas, Va.), added with 10% fetal bovine serum (FBS) (Gibco, Australia) and 2 mM L-glutamic acid (Invitrogen). Expression of KCNQ channels: 24 h before transfection, CHO-K1 spreaded on a dish with a diameter of 60 mm. Lipofectamine 2000™ agent (Invitrogen) was used for Transfection according to the protocol thereof. GFP (green fluorescent protein) was cotransfected to be used as a indication of successful converting into KCNQ plasmid.
Whole-cell voltage-clamp recording was performed on an Axopatch-200B amplifier (Molecular Devices, Sunnyvale, Calif.) at room temperature. The electrode was made by drawing borosilicate glass capillary (World Precision Instruments, Sarasota, Fla.). The electric resistance of the electrode filled with an intracellular fluid is 3 to 5 MΩ. The composition of the intracellular fluid (1 L) was as follows: 145 mM KCl(Sigma), 1 mM MgCl2(Sigma), 5 mM EGTA(Sigma), 10 mM HEPES(Sigma) and 5 mM MgATP(Sigma) (pH was adjusted to 7.3 with KOH). During the recording, an extracellular fluid was continuously perfused by using a BPS perfusion system (ALA Scientific Instruments, Westburg, N.Y.). The composition of the extracellular fluid (1 L) was as follows: 140 mM NaCl(Sigma), 5 mM KCl(Sigma), 2 mM CaCl2(Sigma), 1.5 mM MgCl2(Sigma), 10 mM HEPES(Sigma) and 10 mM glucose(Sigma) (pH was adjusted to 7.4 with NaOH). Electric signal was filtered at 1 kHz and further converted into digital signal by using pClamp 9.2 software (Molecular Devices, Sunnyvale, Calif.) in DigiData 1322A. Series resistors compensate 60 to 80%. Up to date, multivoltage scheme was generally adopted, wherein the clamp voltage was set at −80 mV, stimulating voltage was a gradient voltage from −90 mV to 60 mV with interval of 10 mV, and the stimulating time for each voltage was 2000 ms.
The experimental procedure was the same as that in Electrophysiological Example 1. […]

[3] = test system: convulsive mice induce by MES; assay: MES (maximum electroshock) induced convulsion model, oral perfusion; type: in vivo, KM mice; settings: Mus musculus, 0.5 h; mice, oral perfusion, MES 30 mins after administration; read-out: ED50 (50% effective dose)
From the text: YLS-9A model physiological pharmaceutical electronic stimulator was used in the experiment to induce convulsion of mice, and specific parameters were set as follows: configuration 8, stimulating voltage: 160V, period of stimulation: 5.4 sec. Healthy KM mice (SPF level, male, body weight: 18 to 22 g) were selected for the experiment. After the ear tip of the mice was sufficiently wetted with physiological saline, the mice was electrically stimulated once with ear clip electrode, and tonic hind-limb seizure was deemed as indication of convulsion. The mice were screened one day before the experiment to weed out the dead mice and the ones without generalized tonic seizure. The qualified mice were caged randomly with access to water at liberty. Before the experiment started, the mice were fasted for 8 h.
The compounds to be tested were freshly formulated on the day of experiment. RTG hydrochloride was dissolved with ultrapure water to obtain a solution with desired concentration. K41.HCl and K43.HCl were formulated with 5% DMSO+95% of 1% Tween80, that is, a proper amount of the compound to be tested was weighted and, first, sufficiently dissolved in 5% DMSO, and then added with a desire volume of 1% Tween80 to be sufficiently suspended to form a suspension with a certain drug concentration. The mice screened one day before were randomly grouped with each group having 10 mice, marked, weighted and then administered with the compound to be tested or solvent (5% DMSO+95% (1% Tween 80)) by oral perfusion with administered volume of 0.2 ml/10 g. The dose range for each compound was 1 to 56 mg/kg for RTG, 1 to 40 mg/kg for K41.HCl, and 0.5 to 4 mg/kg for K43.HCl. 30 mins after administration, MES experiment was performed and the experimental parameters were the same as the above. The number of mice with generalized tonic-clonic convulsion in each group was recorded, the protection rate of each of the compounds to be tested on convulsive mice induce by MES was calculated and dose-response curve for each compound was plotted. The dose-response curve for each compound was obtained according to the analysis of Graphpad Prism 5 software, as shown in FIG. 3.

[4] = test system: motor coordination ability of mice; assay: Rotarod experiment, motor coordination ability (acute neurotoxicity); type: in vivo, KM mice; settings: TD50 Rotarod / ED50 MES
Method: (§1) YLS-4C Rotarod system was used in the experiment, wherein the diameter of the rod was 3 cm and the rotate speed was set at 6 rpm. Healthy KM mice (SPF level) were selected, wherein male and female were equal, the body weight was 18 to 22 g. One day before experiment, the mice were place on the rotarod for training and screening. The tail tip of mice was held to make them creep on the rotarod during the training. […] The mice that jumped on the rotarod or griped the rotarod were weed out. In addition, three time periods were set with 1 min for each. […] The qualified mice were randomly caged according to the gender, and allowed to eat and drink freely.
(§2) On the day of the experiment, each compound to be tested was freshly formulated by the same method as described in MES experiment. If the compound was not sufficiently suspended, the suspension was further mixed by ultrasonication for 20 min so as to make the compound sufficiently suspended. […] 30 mins after administration, Rotarod experiment was performed and the experiment parameters were the same as the above. The number of mice that fell off from the rorarod was recorded, and the influence of each compound on motor coordination ability of mice was analyzed. The curve for dose of each compound verse motor deficit (percentage) of mice for each compound was obtained according to the analysis of Graphpad Prism 5 software and was shown in FIG. 4.

[5] = as above; type: in vivo, KM mice; settings: both sexes, KM, mouse, in vivo; mice, oral perfusion, Rotarod 30 mins after administration; read-out: TD50 (50% acute neurotoxicity dose)
Method: as §1, §2

[6] = Stability of solution exposed to air; settings: solution exposed to air (aqueous solution for RTG hydrochloride)

T1 sequence (O43526 whole entry): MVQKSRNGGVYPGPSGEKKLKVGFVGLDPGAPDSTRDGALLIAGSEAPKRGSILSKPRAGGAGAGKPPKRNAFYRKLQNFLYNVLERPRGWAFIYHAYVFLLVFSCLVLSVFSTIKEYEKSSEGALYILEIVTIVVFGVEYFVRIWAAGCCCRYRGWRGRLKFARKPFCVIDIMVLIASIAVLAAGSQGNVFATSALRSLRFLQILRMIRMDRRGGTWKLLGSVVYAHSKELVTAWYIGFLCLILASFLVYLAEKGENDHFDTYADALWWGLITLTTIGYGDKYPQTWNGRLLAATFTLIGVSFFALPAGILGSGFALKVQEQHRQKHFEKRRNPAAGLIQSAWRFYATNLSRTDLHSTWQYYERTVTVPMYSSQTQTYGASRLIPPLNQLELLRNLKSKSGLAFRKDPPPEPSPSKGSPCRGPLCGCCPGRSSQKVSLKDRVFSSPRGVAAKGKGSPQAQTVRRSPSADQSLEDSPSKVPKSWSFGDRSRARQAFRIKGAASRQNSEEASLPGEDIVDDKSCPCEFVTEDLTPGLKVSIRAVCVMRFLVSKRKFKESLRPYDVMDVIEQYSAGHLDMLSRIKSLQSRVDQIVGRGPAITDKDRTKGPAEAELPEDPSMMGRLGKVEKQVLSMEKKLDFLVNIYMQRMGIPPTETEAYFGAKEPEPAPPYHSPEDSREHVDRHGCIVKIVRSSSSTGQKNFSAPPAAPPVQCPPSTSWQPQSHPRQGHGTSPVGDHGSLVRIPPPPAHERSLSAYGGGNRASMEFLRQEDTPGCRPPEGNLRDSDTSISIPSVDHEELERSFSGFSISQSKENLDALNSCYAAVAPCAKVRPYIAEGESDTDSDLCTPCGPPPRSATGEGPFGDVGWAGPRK

Row | Compound | I/I0 (KCNQ potassium channel) | ΔV1/2 (KCNQ potassium channel) [mV] | further results
1 | C#CCN(Cc1ccc(F)cc1)c1ccc(NC(=O)OC)c(OC)c1 [K46•HCl] | 1.52 ± 0.55 | −6.5 ± 2.1 | 
2 | C#CCN(Cc1ccc(F)cc1)c1ccc(NC(=O)OC)c(OC(F)(F)F)c1 [K48•HCl] | 1.24 ± 0.16 | −13.2 ± 1.5 | 
3 | C#CCN(Cc1ccc(F)cc1)c1ccc(NC(=O)CC(=O)OC)cc1 [K57•HCl] | 8.13 ± 2.57 | −31.55 ± 0.86 | 
4 | C#CCN(Cc1ccc(F)cc1)c1ccc(NC(=O)OC)cc1C [K40•HCl] | 1.40 ± 0.04 | −3.42 ± 1.54 | 
5 | C#CCN(Cc1ccc(F)cc1)c1ccc(NC(=O)C2CCC(F)(F)CC2)cc1 [K58•HCl] | 1.78 ± 0.19 | −33.68 ± 1.05 | 
6 | C#CCN(Cc1ccc(F)cc1)c1ccc(NC(=O)CNC(C)=O)cc1 [K56•HCl] | 1.10 ± 0.10 | −2.0 ± 1.3 | 
7 | C#CCN(Cc1ccc(F)cc1)c1ccc(NC(=O)OC)c(C#N)c1 [K42•HCl] | 0.52 ± 0.01 | −5.2 ± 0.7 | 
8 | C#CCN(Cc1ccc(F)cc1)c1ccc(NC(=O)C2CCCO2)cc1 (stereo not shown) [K54•HCl] | 7.55 ± 1.92 | −30.9 ± 4.1 | 
9 | [2H]C([2H])(C#C)N(Cc1ccc(F)cc1)c1ccc(NC(=S)OC)cc1 [K47•HCl, methyl 4-(N-parafluorobenzyl-N-3,3-dideuteriumpropargyl-amino)phenylaminothioformate] | 2.10 ± 0.08 | −18.10 ± 0.03 | 
10 | C#CCN(Cc1ccc(F)cc1)c1ccc(NC(=O)CN(C)C)cc1 [K55•HCl] | 1.72 ± 0.14 | −10.76 ± 4.51 | 
11 | CCOC(=O)Nc1ccc(NCc2ccc(F)cc2)cc1N [RTG, retigabine, reference compound] |  |  | reported lethal dose [1]: 100 mg/kg; EC50 [2]: 1320 nM; ED50 [3]: 21.8 mg/kg; P.I (Protective index)=TD50/ED50 [4]: 3.40; TD50 at 30 min [5]: 74.2 mg/kg; stability of solution exposed to air [6]: quickly become blue and insoluble precipitate is formed
12 | C#CCN(Cc1ccc(F)cc1)c1ccc(NC(=O)OC)cc1OC [K45•HCl] | 0.57 ± 0.01 | −5.1 ± 0.9 | 
13 | methyl 4-(N-parafluorobenzyl-N-3-cyclopropyl propargyl-amino) phenylaminothioformate [K59•HCl] | 1.01 ± 0.13 | −0.14 ± 2.33 | 
14 | C#CCN(Cc1ccc(F)cc1)c1ccc(NC(=O)COCC)cc1 [K53•HCl] | 7.31 ± 1.09 | −14.81 ± 0.92 | 
15 | C#CCN(Cc1ccc(F)cc1)c1ccc(NC(=O)N(C)OC)cc1 [K51•HCl] | 1.61 ± 0.08 | −8.89 ± 1.12 | 
16 | C#CCN(Cc1ccc(F)cc1)c1c(C)cc(NC(=O)OC)cc1C [K44•HCl] | 0.72 ± 0.05 | 13.47 ± 2.13 | 
17 | C#CCN(Cc1ccc(F)cc1)c1ccc(NC(=S)OC)cc1 [K49•HCl, methyl 4-(N-parafluorobenzyl-N-propargyl-amino) phenylaminothioformate] | 4.4 ± 1.6 | −22 ± 2.5 | 
18 | C#CCN(Cc1ccc(F)cc1)c1ccc(NC(=O)COC)cc1 [K52•HCl, N-[4-(N-p-fluorobenzyl-N-propargyl-amino)-phenyl]-2-methoxyacetamide] | 5.80 ± 0.52 | −10.93 ± 1.86 | 
